In patent US20250032527A1, “MEDICAL USE OF N4-HYDROXY CITICOLINE COMPOUNDS” (IMMUNIC AG, priority 2021, published 2025):

Key:
in vitro [1] = conditions: African green monkey, MA-104 cells
Caco-2 = test: A-B permeability (Caco-2, pH 6.5/7.4); conditions: low solubility, high permeability
[2] = A-B permeability (Caco-2, pH 6.5/7.4); conditions: human, A-B, Caco-2, pH 6.5/7.4, test conc. 1.0E−05M
physchem [3] = conditions: pH 7.4
physchem [4] = conditions: pH 7.4, aqueous buffer, kinetic from dmso stock
[5] = tested on: human rhinovirus 14 (HRV-14); test: microbe, parasite or virus in culture; conditions: Rhinovirus B, HRV14, HeLa
in vitro [6] = conditions: human, HeLa cells
in vitro [7] = conditions: dog, MDCK cells
[8] = tested on: respiratory syncytial virus (RSV) A2; test: microbe, parasite or virus in culture; conditions: human respiratory syncytial virus, MA104
[9] = tested on: influenza A (H1N1, California/07/2009); test: microbe, parasite or virus in culture; conditions: H1N1, MDCK
SARS-COV-2 d6-YFP = test: Combinatorial drug assessment by viral replication inhibition assay (CompuSyn); assay type: cell-based
RSV A2 = test: RSV virus titers by endpoint titration (CCID50), mono and combination; assay type: cell-based; conditions: for RSV Virus Titers: MA-104 cells, virus control 4.0
HRV-14 = HRV-14 virus titers by endpoint titration (CCID50), mono and combination; assay type: cell-based; conditions: for HRV-14 Virus Titers: Hela cells, virus control 6.7
SARS-COV-2 = test: microbe, parasite or virus in culture; assay type: cell-based; conditions: Severe acute respiratory syndrome coronavirus 2
physchem [10] = conditions: simulated gastric fluid
physchem [11] = conditions: fassgf or other biorelevant, kinetic from dmso stock
in vitro [12] = conditions: human
[13] = B-A permeability (Caco-2, pH 6.5/7.4); conditions: human, test conc. 1.0E−05M
[14] = Caco-2, pH 6.5, Percent Recovery 1st
[15] = Caco-2, pH 6.5, Percent Recovery 2nd
[16] = Caco-2, pH 6.5, Percent Recovery Mean
[17] = Caco-2, pH 6.5, Permeability 1st
[18] = Caco-2, pH 6.5, Permeability 2nd
[19] = Caco-2, pH 6.5, Permeability Mean
[20] = Example 1 combined with a DHODH inhibitor

SMILES: C[N+](C)(C)CCOP(=O)([O-])OP(=O)([O-])OC[C@H]1O[C@@H](n2ccc(NO)nc2=O)[C@H](O)[C@@H]1O.[Na+] [Example 1, 2-(((((((2R,3S,4R,5R)-3,4-Dihydroxy-5-(4-(hydroxyamino)-2-oxopyrimidin-1 (2H)-yl)tetrahydrofuran-2-yl)methoxy) (hydroxy)phosphoryl)oxy)oxidophosphoryl)oxy)-N,N,N-trimethylethan-1-aminium mono sodium salt]
- CC50 (in vitro [1]): 2400 nM
- biopharmaceutics classification (Caco-2): Class Il
- recovery at 10 µM [2, 14]: 121%
- recovery at 10 µM [2, 15]: 115%
- recovery at 10 µM [2, 16]: 118%
- Papp at 10 µM [2, 17]: 36.1 ×10⁻⁶ cm/s
- Papp at 10 µM [2, 18]: 30.7 ×10⁻⁶ cm/s
- Papp at 10 µM [2, 19]: 33.4 ×10⁻⁶ cm/s
- logD (physchem [3]): 0.52
- solubility (physchem [4]; Solubility 1st): 14.2 µM
- solubility (physchem [4]; Solubility 2nd): 14.4 µM
- solubility (physchem [4]; Solubility Mean): 14.3 µM
- EC50 [5]: 4.7 µM
- CC50 (in vitro [6]): > 25 µM
- CC50 (in vitro [7]): 25 µM
- EC50 [8]: 1100 nM
- EC50 [9]: 4.8 µM
- combinatorial antiviral effect (SARS-COV-2 d6-YFP): synergistic
- RSV Virus Titers (RSV A2; Conc. 0.0079 μM): 4.5 CCID50/mL (Log10)
- RSV Virus Titers (RSV A2; Conc. 0.025 μM): 4.0 CCID50/mL (Log10)
- RSV Virus Titers (RSV A2; Conc. 0.079 μM): 3.5 CCID50/mL (Log10)
- RSV Virus Titers (RSV A2; Conc. 0.25 μM): 4.0 CCID50/mL (Log10)
- RSV Virus Titers (RSV A2; Conc. 0.79 μM): 4.0 CCID50/mL (Log10)
- RSV Virus Titers (RSV A2; Conc. 2.5 μM): 3.5 CCID50/mL (Log10)
- RSV Virus Titers (RSV A2; Conc. 7.9 μM): 3.5 CCID50/mL (Log10)
- RSV Virus Titers (RSV A2; Conc. 25 μM): 3.5 CCID50/mL (Log10)
- combination behavior on RSV (RSV A2; [20]): synergistic
- HRV-14 Virus Titers (HRV-14; Conc. 0.0079 μM): 6.7 CCID50/mL (Log10)
- HRV-14 Virus Titers (HRV-14; Conc. 0.025 μM): 6.7 CCID50/mL (Log10)
- HRV-14 Virus Titers (HRV-14; Conc. 0.079 μM): 6.7 CCID50/mL (Log10)
- HRV-14 Virus Titers (HRV-14; Conc. 0.25 μM): 7.0 CCID50/mL (Log10)
- HRV-14 Virus Titers (HRV-14; Conc. 0.79 μM): 6.7 CCID50/mL (Log10)
- HRV-14 Virus Titers (HRV-14; Conc. 2.5 μM): 6.0 CCID50/mL (Log10)
- HRV-14 Virus Titers (HRV-14; Conc. 7.9 μM): 4.7 CCID50/mL (Log10)
- HRV-14 Virus Titers (HRV-14; Conc. 25 μM): 3.5 CCID50/mL (Log10)
- combination behavior on HRV-14 (HRV-14; [20]): synergistic
- EC50 (SARS-COV-2): < 10 µM
- solubility (physchem [10]; Solubility 1st): < 1 µM
- solubility (physchem [10]; Solubility 2nd): < 1 µM
- solubility (physchem [10]; Solubility Mean): < 1 µM
- solubility (physchem [11]; Solubility 1st): 13.9 µM
- solubility (physchem [11]; Solubility 2nd): 18.3 µM
- solubility (physchem [11]; Solubility Mean): 16.1 µM
- CC50 (in vitro [12]): > 100 µM
- recovery at 10 µM [13, 14]: 91%
- recovery at 10 µM [13, 15]: 83%
- recovery at 10 µM [13, 16]: 87%
- Papp at 10 µM [13, 17]: 26.1 ×10⁻⁶ cm/s
- Papp at 10 µM [13, 18]: 21.2 ×10⁻⁶ cm/s
- Papp at 10 µM [13, 19]: 23.7 ×10⁻⁶ cm/s
